Assay results as given in patent publication EP0199170A1, “Composition and method for providing cytoprotection of the gastric mucosa in a mammal receiving aspirin” (priority 1985, dated 1986).
Read-outs that look alike come from different tables or passages of the source. Marks after values point to notes of the source that are not given here.

How the values were obtained:
[1] = system: Adjuvant Arthritis In Rats; test: Adjuvant-induced arthritis assay (chronic inflammation, injected hind paw volume); conditions: for influence on the antiinflammatory efficacy of aspirin: adjuvant-induced arthritis assay, coadministered with aspirin; for Injected Hind Paw Volume ml + S.E.: adjuvant control 5.57±0.4, normal control 1.89±0.03; for inhibition at 150 mg/kg: Rattus norvegicus, po, 384 h
Experimental: 300 mg/kg for 16 days coadministered with 150 mg/kg of aspirin in an adjuvant-induced arthritis assay [C.J. Pearson, "Experimental Joint Disease", J. Chron.

[2] = system: male Sprague-Dawley rats; test: Acute oral toxicity in rats; conditions: for toxicity: summary statement
Source text: Sodium thiosulfate (anhydrous) was given as a single oral dose to male Sprague-Dawley rats weighing approximately 116-140 g to determine its approximate acute oral LD50. The rats were fasted for four hours before medication, observed for seven days following medication and all surviving rats sacrificed and necropsied at the completion of the study.

[3] = system: Aspirin Lesions; test: Gastric cytoprotection against aspirin lesions in adjuvant arthritic rats; format: in vivo, Sprague-Dawley rats; conditions: for effectiveness as cytoprotectant against aspirin-induced gastric lesions in arthritic rats: coadministered with aspirin in the adjuvant-induced arthritis assay; for Area of Lesion (mm^2), Mean + S.E. / No. of Lesions, Mean + S.E. / No. of Rats with Lesions: single daily oral administration for 16 days
Experimental: 300 mg/kg for 16 days coadministered with 150 mg/kg of aspirin in an adjuvant-induced arthritis assay [C.J. Pearson, "Experimental Joint Disease", J. Chron. […] At the completion of the assay-the stomachs were excised and examined for the presence or absence of lesions.

[4] = system: Aspirin-induced Gastric Mucosal Erosions; test: Aspirin-induced hemorrhagic gastric erosions in fasted rats, lesion number and area by computerized planimetry; format: in vivo, Sprague-Dawley rats; conditions: for gastric cytoprotection: coadministered with acidified aspirin 10 mg/100 g, fasted rats; for Aspirin-induced Gastric Mucosal Erosions, percentage of glandular stomach area / Aspirin-induced Gastric Mucosal Erosions, total number of erosions: sacrificed 1 hour after; for Aspirin-induced Gastric Mucosal Erosions, percentage of glandular stomach area: dose 0 group 1.42; for Aspirin-induced Gastric Mucosal Erosions, total number of erosions: dose 0 group 11.90
Experimental: Fasted Sprague-Dwaley female rats were given intragastrically (ig) at least four different doses ranging from 1-30 mg/100 g. body weight of sodium thiosulfate either 30 minutes before or parallel with intragastric administration of 10 mg/100 g body weight of acidified aspirin. Rats were killed one hour after aspirin administration and the number of hemorrhagic gastric erosions (or_ lesions) was determined and the area of erosion was measured by computerized planimetry.
Fasted Sprague-Dawley Female rats were given intragastrically (ig) at least three different doses ranging from 5-30 mg/100 g body weight of 3,3'-thiobis[propanoic acid] either 30 minutes before or parallel with intragastric administration of 10 mg/100 g body weight of acidified aspirin. Rats were killed one hour after aspirin administration and the number of hemorrhagic gastric erosions (or lesions) was determined and the area of erosion was measured by computerized planimetry. 3,3'-Thiobis[propanoic acid]
All of the experiments in this example were performed in female Sprague-Dawley rats having an initial body weight of 150-200 g. […] Before the administration of aspirin, the rats were fasted over night. […] The extent of gastric mucosal injury was evaluated by a Zeiss stereomicroscope coupled with a computerized planimeter which allowed both surface measurement and counting of lesions, according to the published method of Sandor Szabo et al entitled "A Quantitative Method for Assessing the Extent of Experimental Gastric Erosions and Ulcers", J. Pharmacological Methods 13, 59-66, 1985. Light microscopy of formalin-fixed sections was also performed.
Aspirin was suspended in 1% methylcellulose dissolved in 200 mM HCI and was administered at 10 mg/100 g body weight by gavage with rubber tube (Rusch No. 8) and rats were killed one hour later. The study design is presented as follows in Table A.
In the initial experiment, doses of sodium thiosulfate as its pentahydrate were given per os - (p.o.) either 30 minutes or 30 seconds before aspirin. The. 30 second pretreatment is virtually a parallel administration of the compounds.

[5] = system: Acute Inflammation In Rats; test: Carrageenin model of acute inflammation (paw edema); format: in vivo, Sprague-Dawley rats; conditions: for inhibition at 100 mg/kg: Rattus norvegicus; for Mean Paw Edema, ml+S.E.: control 1.16±0.1, 9 rats per group
Experimental: Male Sprague-Dawley rats (initial weight of about 200 g.) received a single oral dose of sodium thiosulfate (anhydrous) at either 30, 100 or 300 mg/kg coadministered with 100 mg/kg of aspirin in the carrageenin model of acute inflammation (paw edema) [C.A. Winter et al, "Carrageenin-lnduced Edema in Hind Paw of the Rat as an Assay for Anti-Inflammatory Drugs, "Proc. Soc. Exptl.

[6] = Table G: 150 mg/kg each, single oral daily doses for 16 days
[7] = Table H: aspirin 150 mg/kg, Na thiosulfate 300 mg/kg, single oral daily doses for 16 days
[8] = Table D: 150 mg/kg each, controls 0
[9] = Table D: 150 mg/kg each, controls 0/10
[10] = Table E: aspirin 150 mg/kg, Na thiosulfate 300 mg/kg, controls 0.04±0.04
[11] = Table E: aspirin 150 mg/kg, Na thiosulfate 300 mg/kg, controls 0.1±0.1
[12] = Table E: aspirin 150 mg/kg, Na thiosulfate 300 mg/kg, controls 1/10
[13] = parallel administration with aspirin 10 mg/100 g, converted from mg/100 g pentahydrate
[14] = Table D: 150 mg/kg each, controls 0, listed as aspirin

Row | Compound | influence on the antiinflammatory efficacy of aspirin [1] | toxicity [2] | effectiveness as cytoprotectant against aspirin-induced gastric lesions in arthritic rats [3] | gastric cytoprotection ([4]; intragastric) | Injected Hind Paw Volume ml + S.E. [1, 6] | Area of Lesion (mm^2), Mean + S.E. [3, 8] | No. of Lesions, Mean + S.E. [3, 8] | No. of Rats with Lesions [3, 9] | Area of Lesion (mm^2), Mean + S.E. [3, 10] | No. of Lesions, Mean + S.E. [3, 11] | No. of Rats with Lesions [3, 12] | minimum statistically significant effective dose (MED) [4, 13] | Mean Paw Edema, ml+S.E. ([5]; single oral dose 100 mg/kg) | further results
1 | O=C(O)CCSCCC(=O)O [TBPA, 3,3'-Thiobis[propanoic acid]] | did not reduce the antiinflammatory efficacy of ASA | low order of toxicity | effectiveness of TBPA as cytoprotectant against ASA-induced gastric lesions was also demonstrated | significant (p<0.01) gastric cytoprotection | – | – | – | – | – | – | – | – | – | minimal effective dose ([4]; Rattus norvegicus, po, parallel administration with acidified aspirin 10 mg/100 g, intragastric, rats, area and number of lesions, read-out: minimum statistically significant effective dose (MED)): ~300 mg/kg
2 | anhydrous sodium thiosulfate [Na thiosulfate] | did not influence the anti-inflammatory efficacy of aspirin | low order of acute toxicity | effective in reducing the number and size of lesions | – | 5.21 ± 0.5 mL | 0.12±0.12 mm^2 | 0.4±0.4 | 1/5 | 0 mm^2 | 0 | 0/5 | about 32 mg/kg | – | effect on the development of arthritis ([1]; 150 or 300 mg/kg alone, single oral daily doses for 16 days): did not demonstrate an effect on the development of arthritis; % Inhibition [1, 6]: 10%; % Inhibition [1, 7]: 2%; gastric irritancy ([2]; at the very high dose level of 7,000 mg/kg, single oral dose): gastric irritancy was observed; approximate acute oral LD50 (ALDsD) ([2]; single oral dose, male rats fasted four hours, observed 7 days): 7,000 mg/kg; minimum statistically significant effective dose, as anhydrous form ([4]; coadministered with aspirin 10 mg/100 g, anhydrous equivalent of the pentahydrate dose): about 3 mg/100 g
3 | sodium thiosulfate pentahydrate | – | – | – | – | – | – | – | – | – | – | – | about 50 mg/kg | – | protection against aspirin-induced gastric erosions ([4]; given p.o. 30 minutes before aspirin 10 mg/100 g): dose-dependent protection; minimum statistically significant effective dose (MED) ([4]; parallel administration with acidified aspirin 10 mg/100 g, intragastric, rats, area and number of lesions, listed as sodium thiosulfate as its pentahydrate): about 5 mg/100 g; minimum statistically significant effective dose (MED) ([4]; parallel administration with aspirin 10 mg/100 g, converted from mg/100 g): about 201 µmol/kg; Aspirin-induced Gastric Mucosal Erosions, percentage of glandular stomach area ([4]; single oral dose 1.0 mg/100 g body weight, aspirin concomitantly 10 mg/100 g in acidified 1% methylcellulose): 0.89 percentage of glandular stomach area; Aspirin-induced Gastric Mucosal Erosions, total number of erosions ([4]; single oral dose 1.0 mg/100 g body weight, aspirin concomitantly 10 mg/100 g): 6.67; Aspirin-induced Gastric Mucosal Erosions, percentage of glandular stomach area ([4]; single oral dose 5.0 mg/100 g body weight, aspirin concomitantly 10 mg/100 g, p<0.01): 0.18* percentage of glandular stomach area; Aspirin-induced Gastric Mucosal Erosions, total number of erosions ([4]; single oral dose 5.0 mg/100 g body weight, aspirin concomitantly 10 mg/100 g, p≤0.01): 1.56*; Aspirin-induced Gastric Mucosal Erosions, percentage of glandular stomach area ([4]; single oral dose 10.0 mg/100 g body weight, aspirin concomitantly 10 mg/100 g, p<0.01): 0.27* percentage of glandular stomach area; Aspirin-induced Gastric Mucosal Erosions, total number of erosions ([4]; single oral dose 10.0 mg/100 g body weight, aspirin concomitantly 10 mg/100 g, p≤0.01): 1.78*; Aspirin-induced Gastric Mucosal Erosions, percentage of glandular stomach area ([4]; single oral dose 30.0 mg/100 g body weight, aspirin concomitantly 10 mg/100 g, p<0.01): 0* percentage of glandular stomach area; Aspirin-induced Gastric Mucosal Erosions, total number of erosions ([4]; single oral dose 30.0 mg/100 g body weight, aspirin concomitantly 10 mg/100 g, p≤0.01): 0*
4 | sodium thiosulfate | did not reduce the antiinflammatory efficacy of aspirin | low order of toxicity | – | significant (p<0.01) gastric cytoprotection | – | – | – | – | – | – | – | – | – | –
5 | CCCCC1C(=O)N(c2ccccc2)N(c2ccccc2)C1=O [Phenylbutazone, phenylbutazone] | – | – | – | – | – | – | – | – | – | – | – | – | 0.41 ± 0.03 mL | inhibition at 100 mg/kg ([5]; single oral dose 100 mg/kg, paw edema vs control, read-out: % Inhibition): 65%
6 | CC(=O)Oc1ccccc1C(=O)O [Aspirin, aspirin] | – | – | – | – | 3.31 ± 0.2 mL | 16.02±3.82 mm^2 | 15.2±2.9 | 10/10 | 11.61±4.42 mm^2 | 25.7±4.9 | 9/9 | – | 0.65 ± 0.1 mL | inhibition at 150 mg/kg [1, 6]: 61%; inhibition at 150 mg/kg [1, 7]: 43%; inhibition at 100 mg/kg ([5]; po): 44%; Area of Lesion (mm^2), Mean + S.E. [3, 14]: 16.02 mm^2; No. of Lesions, Mean + S.E. [3, 14]: 15.2; Area of Lesion (mm^2), Mean + S.E. ([3]; Table E: aspirin 150 mg/kg, Na thiosulfate 300 mg/kg, controls 0.04±0.04, listed as aspirin): 11.61 mm^2; No. of Lesions, Mean + S.E. ([3]; Table E: aspirin 150 mg/kg, Na thiosulfate 300 mg/kg, controls 0.1±0.1, listed as aspirin): 25.7
